Measurements from paper PMC10044245, “Comparative Evaluation of Existing and Rationally Designed Novel Antimicrobial Peptides for Treatment of Skin and Soft Tissue Infections” (Antibiotics, 2023).
In brackets after ≈: the same amount, converted by molar mass. Where a SMILES comes first, the peptide text is derived from it.

What was measured:
[1] = system: fresh human blood (red blood cell lysis); assay: Hemolysis assay; format: cell-based; settings: for hemolysis ratio (HR): red cells of human, 1 h
Description: A hemolysis test was performed to assess the hemocompatibility of the peptides. Blood from healthy donors was collected in Monovette vacutainers containing Ethylenediamine tetra-acetic acid (EDTA). Blood was diluted with 0.9% sodium chloride solution supplemented with 10 U/mL heparin (4:5 ratio by volume). Peptides were added to 1.5 mL vials containing fresh 0.49 mL PBS and incubated at 37 °C and 5% CO2 for 30 min, and 10 μL of diluted blood was added to each vial and incubated at 37 °C and 5% CO2 for 1 h. PBS was used as a negative control and deionized water was used as a positive control. After incubation tubes were centrifuged at 3000 rpm for 5 min, the supernatants were collected, and the absorbance was measured at a wavelength of 545 nm in a microplate reader Tecan Infinite® 200 PRO (Tecan Group Ltd., Mannedorf, Switzerland).
The hemolytic ratio (HR) was calculated by the following equation: HR (%)=(Abs(sample)−Abs(negative control))/(Abs (positive control−Abs(negative control))×100%

C. acnes = assay: microbe, parasite or virus in culture; format: cell-based, Cutibacterium acnes
Description: (§1) Quantification of the antimicrobial resistance against various AMPs was carried out by measuring the bacterial growth in the presence of peptides at serial dilutes in 96 well plates in a microplate (96-well plate) reader Infinite® M200 PRO Multimode Microplate Reader (Tecan, Maennedorf, Switzerland) according to our recent reports. All bacterial strains were incubated at 32 °C for 13–18 h at 200 rpm. Optical density measurements (λ = 550 nm) were taken automatically at 10 min intervals. Antimicrobial resistance activity was quantified as the minimum inhibitory concentration (MIC)—the lowest concentration of a peptide which prevents growth of bacterial cells.

K. pneumonia = assay: microbe, parasite or virus in culture; format: cell-based, Klebsiella pneumoniae
Description: as §1

P. aeruginosa = assay: microbe, parasite or virus in culture; format: cell-based, Pseudomonas aeruginosa
Description: as §1

[2] = system: BALB/c 3T3 murine fibroblast cell line; assay: Cytotoxicity, neutral red uptake assay; format: cell-based
Text: (§2) The BALB/c 3T3 murine fibroblast cell line was obtained from ATCC (American Type Culture Collection, Manassas, VA, USA). Primary human dermal fibroblasts were isolated by enzymatic digestion from skin biopsies in the Laboratory of Bioanalytical and Biodosimetry Methods, University of Latvia, in accordance with the approval of the Committee of Research Ethics of the Institute of Cardiology and Regenerative Medicine, University of Latvia. Cells were propagated in DMEM medium (Sigma, Irvine, UK), supplemented with 1% penicillin (100 U/mL)–streptomycin (100 μg/mL), and 10% calf serum (Sigma, St. Louis, MO, USA) for Balb/c 3T3 cell line and fetal bovine serum (Sigma, St. Louis, MO, USA) for primary dermal fibroblasts. All cultivations were performed in a humidified 5% CO2 atmosphere at 37 °C.
(§3) The cytotoxicity of the peptides was tested in the BALB/c3T3 cell line and primary dermal fibroblasts by the neutral red (NR) uptake assay. Cells were seeded in 96-well plates at a density of 5 × 10^3 cells per well. After 24 h of incubation, peptides in a concentration range of 3.9 to 500 μg/mL were added. Dilutions were made in a cell cultivation medium. Cultivation in the presence of extracts was performed for 48 h. Afterwards, plates were washed with phosphate-buffered saline (PBS) (Sigma, Irvine, UK), and a 25 µg/mL NR solution (Sigma, Irvine, UK) diluted in 5%-fetal-calf-serum-containing-media was added. After 3 h, incubation in a humidified 5% CO2 atmosphere at 37 °C, the plate was washed with PBS, and the NR taken up by viable cells was extracted using desorbing fixative (50% ethanol/1% acetic acid/49% water). Absorbance at 540 nm was measured using a microplate reader Tecan Infinite® 200 PRO (Tecan Group Ltd., Mannedorf, Switzerland). Cytotoxicity was expressed as a concentration-dependent reduction in the uptake of NR, compared to the untreated controls and calculated using the following equation: Cell viability (%)=Abs540nm(treatment)−Abs540nm(background)/Abs540nm(untreated control)−Abs540nm(background)×100%

S. aureus = assay: microbe, parasite or virus in culture; format: cell-based, Staphylococcus aureus
Description: as §1

E. coli = assay: microbe, parasite or virus in culture; format: cell-based, Escherichia coli
Description: as §1

[3] = system: primary human dermal fibroblasts; format: cell-based; settings: 48 h
Text: as §2, §3

E. faecium = assay: microbe, parasite or virus in culture; format: cell-based, Enterococcus faecium
Description: as §1

| SMILES | MIC C. acnes (C. acnes) | MIC K. pneumonia (K. pneumonia) | MIC P. aeruginosa (P. aeruginosa) | IC50, viability of Balb/c 3T3 cells ([2]; 48 h) | MIC S. aureus (S. aureus) | MIC E. coli (E. coli) | IC50, viability of human primary dermal fibroblasts [3] | MIC E. faecium (E. faecium) | Therapeutic Index C. acnes (C. acnes) | Therapeutic Index K. pneumonia (K. pneumonia) | Therapeutic Index P. aeruginosa (P. aeruginosa) | Therapeutic Index S. aureus (S. aureus) | Therapeutic Index E. coli (E. coli) | Therapeutic Index E. faecium (E. faecium) | hemolytic activity [1] | other results |
| --- | --- | --- | --- | --- | --- | --- | --- | --- | --- | --- | --- | --- | --- | --- | --- | --- |
| CC(C)C[C@H](NC(=O)[C@H](C)NC(=O)[C@H](CCCCN)NC(=O)[C@H](CC(C)C)NC(=O)[C@H](C)NC(=O)[C@H](CCCCN)NC(=O)[C@H](CC(C)C)NC(=O)[C@H](CC(C)C)NC(=O)[C@H](C)NC(=O)[C@H](CCCCN)NC(=O)[C@H](CC(C)C)NC(=O)[C@H](C)NC(=O)[C@H](CCCCN)NC(=O)[C@H](C)NC(=O)[C@@H](N)Cc1ccccc1)C(=O)O [Oligo10] (H-FAKALKALLKALKAL-OH) | 2.0 µg/mL (≈ 1.25 µM) | 63.0 µg/mL (≈ 39.4 µM) | 63.0 µg/mL (≈ 39.4 µM) | 218.21 µg/mL | 4.0 µg/mL (≈ 2.5 µM) | 16.0 µg/mL (≈ 10 µM) | 241.54 µg/mL | 16.0 µg/mL (≈ 10 µM) | – | – | – | – | – | – | – | concentration with mild hemolytic activity [1]: 16000 ng/mL |
| CC[C@H](C)[C@H](NC(=O)[C@H](Cc1ccccc1)NC(=O)[C@H](CCCCN)NC(=O)[C@H](CCCCN)NC(=O)[C@H](Cc1ccccc1)NC(=O)[C@H](CCCCN)NC(=O)[C@H](CCCCN)NC(=O)[C@H](C)NC(=O)[C@H](Cc1ccccc1)NC(=O)[C@H](CCCCN)NC(=O)[C@H](CCCCN)NC(=O)[C@@H](NC(=O)[C@@H](N)Cc1ccccc1)[C@@H](C)CC)C(=O)N[C@@H](CCCCN)C(=O)N[C@@H](CCCCN)C(=O)N[C@@H](Cc1ccccc1)C(=O)N[C@@H](C)C(=O)N[C@@H](CCCCN)C(=O)N[C@@H](Cc1ccccc1)C(=O)N[C@@H](C)C(=O)N[C@@H](Cc1ccccc1)C(=O)N[C@@H](C)C(=O)N[C@@H](Cc1ccccc1)C(=O)O [Peptide R1] (H-FIKKFAKKFKKFIKKFAKFAFAF-OH; N-terminus and C-terminus assumed) | 2.0 µg/mL (≈ 0.699 µM) | 4.0 µg/mL (≈ 1.4 µM) | 8.0 µg/mL (≈ 2.8 µM) | 63.84 µg/mL | 8.0 µg/mL (≈ 2.8 µM) | 8.0 µg/mL (≈ 2.8 µM) | 128.07 µg/mL | 16.0 µg/mL (≈ 5.6 µM) | 64.04 | – | – | – | – | – | – | decrease of cell viability ([2]; Balb/c 3T3, at 15.63 μg/mL and above): more than 62% |
| CC(C)C[C@H](NC(=O)[C@H](CS)NC(=O)[C@H](Cc1ccccc1)NC(=O)[C@@H](N)CCCCN)C(=O)N[C@@H](CCCCN)C(=O)N[C@@H](Cc1ccccc1)C(=O)N[C@@H](CS)C(=O)N[C@@H](Cc1ccccc1)C(=O)N[C@@H](CCCCN)C(=O)NCC(=O)N[C@@H](Cc1ccccc1)C(=O)N[C@@H](CS)C(=O)N[C@@H](Cc1ccccc1)C(=O)N[C@@H](CCCCN)C(=O)N[C@@H](C)C(=O)N[C@@H](CS)C(=O)NCC(=O)N[C@@H](CCCCN)C(=O)O [Peptide R11] (H-KFCLKFCFKGFCFKACGK-OH; N-terminus and C-terminus assumed) | 0.3 µg/mL (≈ 0.142 µM) | – | – | – | – | – | – | – | 356.7 | 1.7 | 1.7 | 6.7 | 0.9 | 6.7 | – | hemolysis ratio (HR) ([1]; 32 μg/mL): below 2%; hemolysis ratio (HR) ([1]; 64 μg/mL): 2.85–7.03%; concentrations not cytotoxic ([2]; Balb/c 3T3, neutral red uptake, 48 h, tested 3.9–500 μg/mL): 3900 ng/mL |
| CC[C@H](C)[C@H](NC(=O)[C@H](CCCCN)NC(=O)[C@@H](N)CCCCN)C(=O)N[C@@H](C)C(=O)N[C@@H](CCCCN)C(=O)N[C@@H](CCCCN)C(=O)N[C@@H](Cc1ccccc1)C(=O)N[C@@H](Cc1c[nH]c2ccccc12)C(=O)N[C@@H](CCCCN)C(=O)N[C@@H](CCCCN)C(=O)N[C@@H](Cc1ccccc1)C(=O)N[C@@H](Cc1c[nH]c2ccccc12)C(=O)N[C@@H](CCCCN)C(=O)N[C@@H](Cc1ccccc1)C(=O)N[C@@H](Cc1c[nH]c2ccccc12)C(=O)N1CCC[C@H]1C(=O)N[C@@H](CCCCN)C(=O)N[C@@H](Cc1ccccc1)C(=O)N[C@@H](Cc1c[nH]c2ccccc12)C(=O)N[C@@H](CCCCN)C(=O)N[C@H](C(=O)N[C@@H](Cc1ccccc1)C(=O)N[C@@H](CCCCN)C(=O)N[C@@H](CCCCN)C(=O)O)[C@@H](C)CC [Peptide R14] (H-KKIAKKFWKKFWKFWPKFWKIFKK-OH) | 1.0 µg/mL (≈ 0.303 µM) | 4.0 µg/mL (≈ 1.21 µM) | 4.0 µg/mL (≈ 1.21 µM) | 21.07 µg/mL | 8.0 µg/mL (≈ 2.42 µM) | 16.0 µg/mL (≈ 4.84 µM) | – | 8.0 µg/mL (≈ 2.42 µM) | – | 8.8 | 8.8 | 4.4 | 2.2 | 4.4 | strong hemolytic activity | hemolysis ratio (HR) [1]: > 5% |
| CC[C@H](C)[C@H](NC(=O)[C@H](CCCCN)NC(=O)[C@@H](N)CCCCN)C(=O)N[C@@H](C)C(=O)N[C@@H](CCCCN)C(=O)N[C@@H](CCCCN)C(=O)N[C@@H](Cc1ccccc1)C(=O)N[C@@H](Cc1c[nH]c2ccccc12)C(=O)N[C@@H](CCCCN)C(=O)N[C@@H](CCCCN)C(=O)N[C@@H](Cc1ccccc1)C(=O)N[C@@H](Cc1c[nH]c2ccccc12)C(=O)N[C@@H](CCCCN)C(=O)N[C@@H](Cc1ccccc1)C(=O)N[C@@H](Cc1c[nH]c2ccccc12)C(=O)N[C@@H](CCCCN)C(=O)N[C@H](C(=O)N[C@@H](Cc1ccccc1)C(=O)N[C@@H](CCCCN)C(=O)N[C@@H](CCCCN)C(=O)O)[C@@H](C)CC [Peptide R10] (H-KKIAKKFWKKFWKFWKIFKK-OH) | 0.5 µg/mL (≈ 0.182 µM) | 8.0 µg/mL (≈ 2.91 µM) | 2.0 µg/mL (≈ 0.729 µM) | 86.99 µg/mL | 4.0 µg/mL (≈ 1.46 µM) | – | 38.19 µg/mL | 4.0 µg/mL (≈ 1.46 µM) | 76.38 | 4.77 | 19.1 | 9.55 | 19.1 | 9.55 | strong hemolytic activity | – |
